The structures appear in SMILES notation.

The target of experiment [1] is T1, Type-1 angiotensin II receptor (Homo sapiens, UniProt P30556).
T1 sequence (P30556 whole entry): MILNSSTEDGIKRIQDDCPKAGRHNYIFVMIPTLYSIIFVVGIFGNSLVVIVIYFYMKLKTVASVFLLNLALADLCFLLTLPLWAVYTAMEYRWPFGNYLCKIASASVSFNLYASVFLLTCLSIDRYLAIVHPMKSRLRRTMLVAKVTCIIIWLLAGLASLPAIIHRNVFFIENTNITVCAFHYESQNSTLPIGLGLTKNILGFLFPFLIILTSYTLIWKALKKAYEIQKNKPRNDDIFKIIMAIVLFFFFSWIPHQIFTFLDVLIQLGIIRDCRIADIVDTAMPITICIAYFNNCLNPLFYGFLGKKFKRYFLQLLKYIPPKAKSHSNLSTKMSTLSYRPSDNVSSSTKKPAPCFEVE

The next experiment has as its target D(1A) dopamine receptor (Homo sapiens, UniProt P21728). It is filed as functional, cell-based.
The target in experiment [2] is T2, Neuropeptide Y receptor type 1 (Homo sapiens, UniProt P25929).
T2 sequence (P25929 whole entry): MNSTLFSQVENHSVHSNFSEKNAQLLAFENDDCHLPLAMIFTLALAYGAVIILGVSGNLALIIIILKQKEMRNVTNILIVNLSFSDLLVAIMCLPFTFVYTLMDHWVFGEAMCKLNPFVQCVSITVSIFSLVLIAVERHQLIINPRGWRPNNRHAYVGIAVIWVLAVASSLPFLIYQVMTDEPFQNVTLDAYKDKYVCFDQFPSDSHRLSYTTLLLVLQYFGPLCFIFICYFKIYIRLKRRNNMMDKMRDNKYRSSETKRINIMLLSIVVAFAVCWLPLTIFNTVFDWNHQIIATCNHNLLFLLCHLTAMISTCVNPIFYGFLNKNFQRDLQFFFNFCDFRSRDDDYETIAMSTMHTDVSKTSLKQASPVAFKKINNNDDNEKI

A further experiment concerns the target Vasopressin V1a receptor (Homo sapiens, UniProt P37288).
In experiment [3] the target is 5-hydroxytryptamine receptor 2B (Homo sapiens, UniProt P41595). The class given is functional, cell-based.
Another experiment deals with Melanocortin receptor 3 (Homo sapiens, UniProt P41968).
The target of experiment [4] is Sodium-dependent noradrenaline transporter (Homo sapiens, UniProt P23975).
A further experiment concerns the target T3, Progesterone receptor (Homo sapiens, UniProt P06401).
T3 sequence (P06401 whole entry): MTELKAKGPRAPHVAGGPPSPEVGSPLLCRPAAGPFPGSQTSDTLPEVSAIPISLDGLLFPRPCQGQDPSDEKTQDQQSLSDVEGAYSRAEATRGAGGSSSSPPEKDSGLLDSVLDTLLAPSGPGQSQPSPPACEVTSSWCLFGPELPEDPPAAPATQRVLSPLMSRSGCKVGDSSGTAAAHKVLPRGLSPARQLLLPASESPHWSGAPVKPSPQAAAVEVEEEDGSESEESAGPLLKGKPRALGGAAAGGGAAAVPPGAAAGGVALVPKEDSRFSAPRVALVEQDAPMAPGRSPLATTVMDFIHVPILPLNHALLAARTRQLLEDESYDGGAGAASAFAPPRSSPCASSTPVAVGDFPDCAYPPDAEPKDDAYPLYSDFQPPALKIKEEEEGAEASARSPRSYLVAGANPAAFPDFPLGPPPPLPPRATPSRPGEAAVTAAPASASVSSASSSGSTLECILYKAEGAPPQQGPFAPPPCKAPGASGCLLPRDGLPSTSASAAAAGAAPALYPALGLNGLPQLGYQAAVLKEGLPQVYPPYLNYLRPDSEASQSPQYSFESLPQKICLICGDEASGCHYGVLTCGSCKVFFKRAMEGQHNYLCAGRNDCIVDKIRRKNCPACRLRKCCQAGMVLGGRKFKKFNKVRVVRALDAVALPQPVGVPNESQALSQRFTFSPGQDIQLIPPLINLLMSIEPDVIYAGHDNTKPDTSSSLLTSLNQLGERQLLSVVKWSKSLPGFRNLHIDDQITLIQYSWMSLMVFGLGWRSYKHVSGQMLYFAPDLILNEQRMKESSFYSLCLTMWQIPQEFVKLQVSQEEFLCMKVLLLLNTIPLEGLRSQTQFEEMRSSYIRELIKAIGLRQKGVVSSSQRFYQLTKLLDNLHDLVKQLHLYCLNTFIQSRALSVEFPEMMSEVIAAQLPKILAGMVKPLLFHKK

Experiment [5] addresses T4, Equilibrative nucleoside transporter 1 (Homo sapiens, UniProt Q99808).
T4 sequence (Q99808 whole entry): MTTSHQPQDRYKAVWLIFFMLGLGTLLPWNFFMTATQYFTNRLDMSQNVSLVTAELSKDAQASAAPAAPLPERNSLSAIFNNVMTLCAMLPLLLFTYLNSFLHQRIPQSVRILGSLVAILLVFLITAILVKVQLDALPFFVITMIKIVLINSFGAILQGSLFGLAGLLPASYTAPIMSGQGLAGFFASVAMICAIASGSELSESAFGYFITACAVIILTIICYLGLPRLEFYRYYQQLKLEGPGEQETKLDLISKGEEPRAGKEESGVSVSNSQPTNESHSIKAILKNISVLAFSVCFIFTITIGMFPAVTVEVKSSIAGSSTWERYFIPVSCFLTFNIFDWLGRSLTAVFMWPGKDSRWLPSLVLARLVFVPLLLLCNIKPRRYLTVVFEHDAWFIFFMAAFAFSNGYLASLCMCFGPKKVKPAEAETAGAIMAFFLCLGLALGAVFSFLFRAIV

Experiment [6] deals with T5, 5-hydroxytryptamine receptor 2C (Homo sapiens, UniProt P28335).
T5 sequence (P28335 whole entry): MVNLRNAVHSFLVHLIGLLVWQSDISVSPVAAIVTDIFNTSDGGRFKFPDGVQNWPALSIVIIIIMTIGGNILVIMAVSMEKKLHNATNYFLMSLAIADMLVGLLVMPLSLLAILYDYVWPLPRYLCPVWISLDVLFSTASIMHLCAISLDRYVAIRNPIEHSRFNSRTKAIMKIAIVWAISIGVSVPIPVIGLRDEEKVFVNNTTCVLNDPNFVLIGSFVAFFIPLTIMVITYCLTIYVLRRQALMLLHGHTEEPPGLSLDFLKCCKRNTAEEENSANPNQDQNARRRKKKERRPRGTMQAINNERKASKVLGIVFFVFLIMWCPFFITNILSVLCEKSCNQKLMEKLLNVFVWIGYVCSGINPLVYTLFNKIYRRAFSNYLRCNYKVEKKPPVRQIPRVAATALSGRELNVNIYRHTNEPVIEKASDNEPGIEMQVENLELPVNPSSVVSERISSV
Note: assay procedure not described here.

Melanocortin receptor 3, sequence (P41968 whole entry): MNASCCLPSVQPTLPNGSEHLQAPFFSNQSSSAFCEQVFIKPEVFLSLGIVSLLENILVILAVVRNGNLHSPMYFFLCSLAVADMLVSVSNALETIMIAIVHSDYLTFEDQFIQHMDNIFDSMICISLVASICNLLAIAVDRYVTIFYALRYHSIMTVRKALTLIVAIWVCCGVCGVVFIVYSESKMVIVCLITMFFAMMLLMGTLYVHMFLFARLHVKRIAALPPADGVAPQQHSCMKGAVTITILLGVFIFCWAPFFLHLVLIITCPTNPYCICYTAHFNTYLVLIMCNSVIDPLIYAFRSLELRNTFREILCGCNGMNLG
Vasopressin V1a receptor, sequence (P37288 whole entry): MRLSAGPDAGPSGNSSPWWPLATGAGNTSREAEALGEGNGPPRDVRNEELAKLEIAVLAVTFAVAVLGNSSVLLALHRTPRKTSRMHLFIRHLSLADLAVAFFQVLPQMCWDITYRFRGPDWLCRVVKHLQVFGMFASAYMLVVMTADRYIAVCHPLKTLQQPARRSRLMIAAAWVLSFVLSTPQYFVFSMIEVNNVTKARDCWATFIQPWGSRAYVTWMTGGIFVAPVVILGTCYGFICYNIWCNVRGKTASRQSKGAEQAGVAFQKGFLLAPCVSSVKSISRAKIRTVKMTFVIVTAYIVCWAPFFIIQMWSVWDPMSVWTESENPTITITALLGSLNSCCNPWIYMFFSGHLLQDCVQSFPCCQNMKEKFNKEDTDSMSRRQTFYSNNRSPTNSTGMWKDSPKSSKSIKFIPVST
5-hydroxytryptamine receptor 2B, sequence (P41595 whole entry): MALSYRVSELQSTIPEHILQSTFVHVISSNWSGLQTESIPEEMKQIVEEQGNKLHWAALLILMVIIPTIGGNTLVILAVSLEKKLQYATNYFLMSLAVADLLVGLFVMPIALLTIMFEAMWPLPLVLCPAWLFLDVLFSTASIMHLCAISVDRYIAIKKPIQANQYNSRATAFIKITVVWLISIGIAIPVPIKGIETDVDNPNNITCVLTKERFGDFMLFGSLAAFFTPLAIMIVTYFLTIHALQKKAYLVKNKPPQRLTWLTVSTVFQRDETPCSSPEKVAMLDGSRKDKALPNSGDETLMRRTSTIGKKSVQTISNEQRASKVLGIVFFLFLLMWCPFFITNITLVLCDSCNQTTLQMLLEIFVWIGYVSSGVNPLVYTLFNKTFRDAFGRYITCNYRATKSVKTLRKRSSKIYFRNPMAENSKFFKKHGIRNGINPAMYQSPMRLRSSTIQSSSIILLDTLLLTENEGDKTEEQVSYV
Sodium-dependent noradrenaline transporter, sequence (P23975 whole entry): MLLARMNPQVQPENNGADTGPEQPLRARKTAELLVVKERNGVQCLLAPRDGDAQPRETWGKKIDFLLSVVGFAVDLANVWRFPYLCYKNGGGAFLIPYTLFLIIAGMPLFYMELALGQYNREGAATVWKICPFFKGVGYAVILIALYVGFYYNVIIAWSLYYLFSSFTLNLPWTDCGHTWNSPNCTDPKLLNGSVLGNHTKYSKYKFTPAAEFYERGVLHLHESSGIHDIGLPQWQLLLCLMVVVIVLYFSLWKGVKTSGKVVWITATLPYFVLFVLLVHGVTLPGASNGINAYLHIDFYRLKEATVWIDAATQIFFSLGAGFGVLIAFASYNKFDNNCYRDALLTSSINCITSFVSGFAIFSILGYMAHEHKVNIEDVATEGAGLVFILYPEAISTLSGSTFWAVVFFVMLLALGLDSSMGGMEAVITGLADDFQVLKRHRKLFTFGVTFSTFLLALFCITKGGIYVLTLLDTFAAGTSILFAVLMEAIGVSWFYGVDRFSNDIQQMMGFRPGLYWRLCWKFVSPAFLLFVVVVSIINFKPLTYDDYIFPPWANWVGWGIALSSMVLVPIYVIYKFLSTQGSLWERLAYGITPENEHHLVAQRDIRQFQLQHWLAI
D(1A) dopamine receptor, sequence (P21728 whole entry): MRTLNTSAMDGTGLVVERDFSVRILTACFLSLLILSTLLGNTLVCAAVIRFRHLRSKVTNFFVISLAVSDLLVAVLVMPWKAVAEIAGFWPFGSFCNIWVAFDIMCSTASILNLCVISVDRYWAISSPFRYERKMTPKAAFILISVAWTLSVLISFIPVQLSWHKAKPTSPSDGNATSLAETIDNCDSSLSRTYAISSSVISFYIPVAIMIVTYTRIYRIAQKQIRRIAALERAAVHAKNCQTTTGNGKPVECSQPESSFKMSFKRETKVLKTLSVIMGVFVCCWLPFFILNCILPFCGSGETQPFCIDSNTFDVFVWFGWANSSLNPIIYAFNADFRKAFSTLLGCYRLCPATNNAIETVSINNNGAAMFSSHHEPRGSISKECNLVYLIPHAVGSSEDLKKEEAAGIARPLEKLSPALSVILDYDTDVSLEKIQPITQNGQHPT

For `CC1(C)O[C@@H]2[C@@H](CO[C@@]3(COS(N)(=O)=O)OC(C)(C)O[C@@H]23)O1` [TOPIRAMATE], the AC50 in experiment [1] was more than 30 µM; at D(1A) dopamine receptor it was more than 10 µM; in experiment [2], more than 30 µM; on Vasopressin V1a receptor, more than 10 µM; in [3], more than 10 µM; on Melanocortin receptor 3, more than 30 µM. Moreover, the AC50 is more than 10 µM in [4], more than 30 µM on Progesterone receptor, more than 30 µM in experiment [5] and more than 30 µM in [6].

In general, AC50 refers to the concentration giving half of the maximal activity seen. A lower AC50 goes with greater potency.

(Values after ChEMBL document CHEMBL5291721, “A preclinical secondary pharmacology resource illuminates target-adverse drug reaction associations of marketed drugs” (Nat Commun, 2023).)
